The values below are quoted from earlier work in patent EP2662403B1, “Stabilizing resin formulation of halogen-containing polymers” (Reagens S.p.A., priority 2012, dated 2013).

Like-named read-outs stand apart in the source and are kept apart here.

For this data set the following is noted: indication of the basicity of the polyalkylpiperidine in the formulation, no method or source given.

Consider `CN1C(C)(C)CC(OC(=O)CCCCCCCCC(=O)OC2CC(C)(C)N(C)C(C)(C)C2)CC1(C)C` [Tinuvin 765, bis(1,2,2,6,6-pentamethyl-4-piperidyl)sebacate], for which the pKb (Table 11) is reported as 5.5-8.5.

On to `CC1(C)CC(OC(=O)CCCCCCCCC(=O)OC2CC(C)(C)NC(C)(C)C2)CC(C)(C)N1` [Tinuvin 770, bis(2,2,6,6,-tetramethyl-4-piperidyl)sebacate], for which the pKb is given as 4.3-7.4 (Table 9), 4.3-7.4 (Table 10), 4.3-7.4 (Table 11) and 4.3-7.4 (Table 12).

Consider `CCCCN(c1nc(NCCCN(CCN(CCCNc2nc(N(CCCC)C3CC(C)(C)N(C)C(C)(C)C3)nc(N(CCCC)C3CC(C)(C)N(C)C(C)(C)C3)n2)c2nc(N(CCCC)C3CC(C)(C)N(C)C(C)(C)C3)nc(N(CCCC)C3CC(C)(C)N(C)C(C)(C)C3)n2)c2nc(N(CCCC)C3CC(C)(C)N(C)C(C)(C)C3)nc(N(CCCC)C3CC(C)(C)N(C)C(C)(C)C3)n2)nc(N(CCCC)C2CC(C)(C)N(C)C(C)(C)C2)n1)C1CC(C)(C)N(C)C(C)(C)C1` [Chimassorb 119], for which, under “Table 11”, the pKb is 5.5-8.5.
